Laboratory results reported in US20230322721A1 (OSLO UNIVERSITETSSYKEHUS HF, priority 2020, published 2023).
Counter-ions that a name gives are not always drawn. Like-named read-outs stand apart in the source and are kept apart here.

What was measured:
TNKS2 = TNKS2 (Homo sapiens (Human), UniProt Q9H2K2); assay: Biochemical IC50 TNKS2; details: read-out: Biochemical IC50 TNKS2
Description: (§1) XLfit (idbs) was used to determine the IC50-values in inhibition experiments. The following formula was chosen to fit the data points (Langmuir Binding Isotherm): fit=((A+(B*x))+(((C−B)*(1−exp((−1*D)*x)))/D)), res=(y−fit).

HEK293 = assay: Cellular IC50 HEK293; format: cell-based
Description: as §1

[1] = Metabolic stability in human liver microsomes (HLM); format: in vitro ADME; details: pH 7.4, 1 μM compound, 0.5 mg/ml microsomal protein, 37° C.; for half-life at 1 μM: read-out: HLM t1/2 average
Procedure: (§2) Metabolic stability was investigated in mouse liver microsomes (MLM) and in human liver microsomes (HLM): […] Incubations were performed at 37° C. Control incubations with reference substances were included for each experiment. […] After the last time point, the quench plates were mixed thoroughly and centrifuged for 15 minutes at 3700 rpm and 10° C. (Eppendorf 5804R). The supernatant was transferred to new 96 well plates and subjected to LCMS analysis. The disappearance of the parent compound was determined.

[2] = Metabolic stability in mouse liver microsomes (MLM); format: in vitro ADME; details: pH 7.4, 1 μM compound, 0.5 mg/ml microsomal protein, 37° C.; for half-life at 1 μM: read-out: MLM t1/2 average
Procedure: as §2

[3] = Homo sapiens, HEK293; read-out: Cellular IC50 HEK293

TNKS2, sequence (Q9H2K2 whole entry): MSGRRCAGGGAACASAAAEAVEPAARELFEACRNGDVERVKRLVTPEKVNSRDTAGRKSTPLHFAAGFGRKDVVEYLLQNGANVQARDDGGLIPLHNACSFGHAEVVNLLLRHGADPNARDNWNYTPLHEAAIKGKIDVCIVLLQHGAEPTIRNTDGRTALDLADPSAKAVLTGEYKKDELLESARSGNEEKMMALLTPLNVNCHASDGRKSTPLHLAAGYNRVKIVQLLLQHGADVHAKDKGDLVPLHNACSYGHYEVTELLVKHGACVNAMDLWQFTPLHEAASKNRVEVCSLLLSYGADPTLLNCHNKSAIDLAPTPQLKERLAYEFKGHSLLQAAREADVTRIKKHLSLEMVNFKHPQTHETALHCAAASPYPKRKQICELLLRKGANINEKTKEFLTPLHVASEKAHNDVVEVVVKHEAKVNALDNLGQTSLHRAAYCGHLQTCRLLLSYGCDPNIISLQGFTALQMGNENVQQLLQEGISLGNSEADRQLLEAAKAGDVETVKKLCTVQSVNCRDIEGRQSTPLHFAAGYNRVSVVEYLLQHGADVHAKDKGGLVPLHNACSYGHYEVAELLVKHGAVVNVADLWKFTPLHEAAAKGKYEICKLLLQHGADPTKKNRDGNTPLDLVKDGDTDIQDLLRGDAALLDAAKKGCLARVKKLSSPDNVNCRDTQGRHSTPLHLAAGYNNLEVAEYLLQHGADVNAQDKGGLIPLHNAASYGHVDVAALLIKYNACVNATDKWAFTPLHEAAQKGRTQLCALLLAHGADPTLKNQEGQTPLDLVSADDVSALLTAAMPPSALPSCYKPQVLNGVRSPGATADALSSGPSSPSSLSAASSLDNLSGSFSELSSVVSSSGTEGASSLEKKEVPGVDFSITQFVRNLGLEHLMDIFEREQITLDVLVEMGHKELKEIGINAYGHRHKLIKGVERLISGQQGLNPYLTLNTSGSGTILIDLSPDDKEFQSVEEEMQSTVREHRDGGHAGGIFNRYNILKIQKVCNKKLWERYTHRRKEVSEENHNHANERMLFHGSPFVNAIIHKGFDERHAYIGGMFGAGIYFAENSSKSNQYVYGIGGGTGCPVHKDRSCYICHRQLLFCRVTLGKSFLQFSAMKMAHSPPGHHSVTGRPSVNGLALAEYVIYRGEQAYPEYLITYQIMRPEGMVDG

Compound | IC50 (TNKS2) | IC50 (HEK293; [3]) | microsomal CLint at 1 μM [1] | half-life at 1 μM [1] | microsomal CLint at 1 μM [2] | half-life at 1 μM [2] | IC50 (HEK293; Homo sapiens, HEK293, read-out: Cellular IC50 HEK293)
CCOc1ccc(-c2nnc([C@H]3C[C@H](NC(=O)c4cccc5ncc(O)nc45)C3)n2-c2ccccc2F)nc1 [Example 1, N-((1R,3r)-3-(5-(5-ethoxypyridin-2-yl)-4-(2-fluorophenyl)-4H-1,2,4-triazol-3-yl)cyclobutyl)-3-hydroxyquinoxaline-5-carboxamide] | 36 nM | 220 nM | 45 µL/min/mg | 0.517 h | 72 µL/min/mg | 0.317 h | –
CCOc1ccc(-c2nnc([C@H]3C[C@H](NC(=O)c4cccc5nc(O)cnc45)C3)n2-c2ccccc2F)nc1 [Example 2, Dihydrochloride] | 1.5 nM | 1.1 nM | 17 µL/min/mg | 1.32 h | 7 µL/min/mg | > 1.5 h | –
CCOc1ccc(-c2nnc([C@H]3C[C@H](NC(=O)c4cccc5nc(O)c(O)nc45)C3)n2-c2ccccc2F)nc1 [Example 3, N-((1R,3r)-3-(5-(5-ethoxypyridin-2-yl)-4-(2-fluorophenyl)-4H-1,2,4-triazol-3-yl)cyclobutyl)-2,3-dihydroxyquinoxaline-5-carboxamide] | 71 nM | 1250 nM | 5 µL/min/mg | > 1.5 h | 9 µL/min/mg | > 1.5 h | –
CCOc1ccc(-c2nnc([C@H]3C[C@H](NC(=O)c4cccc5c4ncc[n+]5[O-])C3)n2-c2ccccc2F)nc1 [Example 4, 5-(((1R,3r)-3-(5-(5-ethoxypyridin-2-yl)-4-(2-fluorophenyl)-4H-1,2,4-triazol-3-yl)cyclobutyl)carbamoyl)quinoxaline 1-oxide] | 1.6 nM | – | 5 µL/min/mg | > 1.5 h | 19 µL/min/mg | 1.18 h | 2.5 nM
